This is an account of results in US20250206754A1, “PAN-CHEMOKINE ANTAGONISTS FOR USE IN TREATING CANCER AND IMMUNE DISORDERS” ("Micar Innovation" LTD., priority 2022, published 2025).

A short description of data set [1]: Maximal tolerated dose (MTD) study in BALB/c mice. Format: in vivo. Conditions: daily (QD) oral doses of 30 mg/kg and 150 mg/kg. As to the method:
Design of the in vivo study: A total of 44 female BALB/c mice (12 mice for maximal tolerance dose (MTD) study; 32 mice for efficacy study) were used in the 4T-1-Luc study. The animals were specific pathogen free and approximately 4-5 weeks old at the initiation of the study.
MTD studies: Initially, 10 BALB/c mice were used for the maximal tolerated dose (MTD) response study determination. The mice were randomized based on body weight and were treated with Hit 1 compound with daily (QD) oral doses of 30 mg/kg and 150 mg/kg. Body weight was measured daily.

In data set [2] the target is T1, CCR7 (Homo sapiens, UniProt P32248).
T1 construct: expressed in transfected cells
T1 sequence (P32248 25-378): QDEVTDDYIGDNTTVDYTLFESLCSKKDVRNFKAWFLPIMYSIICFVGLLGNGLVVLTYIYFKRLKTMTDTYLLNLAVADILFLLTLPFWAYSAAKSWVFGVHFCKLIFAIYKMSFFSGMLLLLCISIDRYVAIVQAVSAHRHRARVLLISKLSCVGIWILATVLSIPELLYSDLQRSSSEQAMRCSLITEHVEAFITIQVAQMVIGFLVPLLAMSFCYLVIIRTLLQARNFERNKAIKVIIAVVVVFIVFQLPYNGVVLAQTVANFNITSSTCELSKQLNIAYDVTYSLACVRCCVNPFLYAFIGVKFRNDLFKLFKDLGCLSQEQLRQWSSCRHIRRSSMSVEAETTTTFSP
As to the kind of experiment: ERK assay, CCR7. Format: cell-based. As for the experimental part: (§1) The Kb values are also retrieved. […] Finally, to make it more clear the second messenger output for Hit1 and confirm the nature of β-arrestin bias GTPγS and ERK assays were also performed. […] Considering that the ERK is directly related to β-arrestin path and binds directly to the arrestin it was concluded that this compound is β-arrestin biased (Table 1 and FIGS. 3A and 3B). Finally, several other potential hits were identified but the activities were in a range of 25-35% at 100 μM concentration and they were discarded in this disclosure.
Current diversity data provide also several additional experimental evidences which are against colloid aggregation activity dependence: • Almost identical steep dose-response curves have been observed for the natural CCL19 and CCL21 agonists. Thus, it seems that this is not unique to Hit 1 case. • Hill coefficient of 1.5 in the ERK experiments and no steep slope (FIG. 3A). Moreover, the ERK dose-response curve looks like a typical single antagonist ligand. • At the same conditions as in the ERK assay the compound was in particular not active in the GTPγS assay up to 100 μM (FIG. 3B). […]

Data set [3] relates to MB231cell line. As to the kind of experiment: Migration assay by MB231 cell line with CCL19/CCL21. To be noted: 100 nM of CCL19/CCL21.
Procedure: For this purpose a model for the inhibition of CCL2 release from IL-4, IL-13, IL-22 and IFNγ-stimulated primary human keratinocytes (Eczematous inflammation) was used and also an assay for the inhibition of IL-8 release from IL-17A and TNFα (Psoriatic inflammation). […] Finally, migration assay by MB231cell line was performed.
For data set [4], the system named is β-lactamase. Nature of the data set: β-lactamase enzymatic activity counterscreen (colloid aggregation). Format: biochemical. Conditions: 50 μM. As to the method:
(§2) To examine the colloid aggregation possibility a β-lactamase enzymatic activity counterscreen assay was performed, which is the commonly adopted tool for detection of such properties of the compounds.
For orientation: The purpose of a counterscreen is to sort out artefacts and off-target activity.

Data set [5] has as its target T1, CCR7. As to the kind of experiment: Ca^2+ mobilization assay, CCR7. Format: cell-based. As for the experimental part: (§3) Selected compounds were initially sent for both antagonist and agonist TANGO β-arrestin assays. […] Replacement only on the amide group with CN led to strong activity decrease in β-arrestin assay: only 31% activity at about 30 μM and similar one at 100 μM (Table 1). Five more derivatives with replaced amide group were also tested in parallel by Ca^2+ mobilization assay and they all were not active up to the tested concertation of 100 μM.
as §2

Data set [6] deals with 4T-1-luc cells. Format: in vivo. To be noted: Day 15.
Data set [7] deals with T1, CCR7. As to the kind of experiment: TANGO β-arrestin agonist assay, CCR7. Format: cell-based. As to the method:
as §3

Data set [8] addresses T1, CCR7. Nature of the data set: TANGO β-arrestin antagonist assay, CCR7. Format: cell-based. As for the experimental part: as §3
In current CCR7-β-arrestin antagonistic assay a Hill coefficient of 15.1 was obtained, without any transformation of the data. Instead for CCR1, CCR2, CCR3 and CCR5 coefficients much closer to one were calculated, 2.3, 3.1, 2.6 and 1.9, respectively. Moreover, the increase of the activity for CCR3 and CCR5 were over 50-folds for concentrations where the activity raised. […] Further, the CCR7-β-arrestin antagonistic assay was repeated and retrieved almost identical results.

Data set [9] addresses T2, CCR9 (Homo sapiens, UniProt P51686).
T2 sequence (P51686 1-369): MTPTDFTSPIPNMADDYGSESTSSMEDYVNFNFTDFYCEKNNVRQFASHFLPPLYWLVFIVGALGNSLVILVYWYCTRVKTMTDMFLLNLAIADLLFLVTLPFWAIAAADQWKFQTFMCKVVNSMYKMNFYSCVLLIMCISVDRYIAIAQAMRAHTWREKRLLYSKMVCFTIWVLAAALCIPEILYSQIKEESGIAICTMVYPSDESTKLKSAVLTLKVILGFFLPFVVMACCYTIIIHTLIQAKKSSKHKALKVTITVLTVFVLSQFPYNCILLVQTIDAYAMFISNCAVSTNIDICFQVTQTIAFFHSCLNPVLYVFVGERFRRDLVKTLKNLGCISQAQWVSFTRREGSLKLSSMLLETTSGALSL
As to the kind of experiment: Ca^2+ mobilization assay, CCR9. Format: cell-based. As to the method:
as §1

The structures appear in SMILES notation. Like-named read-outs stand apart in the source and are kept apart here.

What is called IC50 is the midpoint of a concentration-inhibition curve. As a reminder, the Hill coefficient is the slope factor of the fitted curve. In general, inhibition refers to the change of the read-out against control, counted positive when it falls. In general, Hill slope refers to the slope factor of the fitted curve. Consider `NC(=O)c1ccccc1Oc1ncnc2sc(-c3ccccc3)cc12` [Hit 1, 2-({6-phenylthieno[2,3-d]pyrimidin-4-yl}oxy)benzamide], for which the “behavior and side effects” value in data set [1] was “did not show abnormal behavior”. For the same compound, the body weight loss result in [1] was “A significant (>20%) body lost was not observed”. Also, the IC50 in data set [2] (ERK assay) was 18.1 µM; in [5] (Ca^2+ mobilization assay, CCR7), 92 µM; in data set [5] (similar Ca^2+ mobilization assay in an independent lab (data not shown)) it was 25 to 30 µM; in data set [8] (TANGO β-arrestin antagonist assay, CCR7, read-out: IC50, antagonistic activity) it was 9.1 µM; in data set [8] (same data transformed to log units, normalized, GraphPad 6, read-out: IC50) it was 9.2 µM; in data set [9] (Ca^2+ mobilization assay) it was 58 µM. Besides, the Hill coefficient in data set [2] (ERK experiments) is 1.5; in data set [8] (CCR7-β-arrestin antagonistic assay, without any transformation of the data), 15.1. In data set [3], the “reduction of CCL19/CCL21-induced migration” value is given as 10 folds. Besides, the migratory cells in data set [3] (control 100%, CCL19/CCL21 200%) is on record as 20%. Moreover, in data set [4], the “activity on β-lactamase” value is reported as −18%. For the same compound, the inhibition at 100 µM amounted to 63% in data set [5] (100 μM concentration, read-out: Ca^2+ assay (100 μM), Percent of inhibition) and 110% in data set [8] (100 μM concentration, read-out: β-arrestin assay (100 μM), Percent of inhibition). The figures for the Kb in data set [5] (CCR7) and in data set [9] were 2.8 µM and 5.2 µM, respectively. The “Hill slope” value in data set [5] (Ca^2+ mobilization assay, CCR7) is recorded as 2.6; in data set [8] (same data transformed to log units, normalized, GraphPad 6) it was 11.2. Further, in data set [5] (Ca^2+ mobilization assay, CCR7 expressed cells, preliminary data), the “activity change with 0.01% Triton X-100” value is listed as “no activity change”. For the same compound, the “Animal bioluminescence imaging intensity, Mean” value in [6] (G2 5 mg/kg p.o. QD) was 1.69E+08 10^8 p/s; in data set [6] (G3 30 mg/kg p.o. QD), 1.09E+08 10^8 p/s. The agonist activity result in [7] is on record as “no any agonist activity”. For the same compound, the Hill-Slope in data set [9] (Ca^2+ assay) is recorded as 0.8.
